Reference: patent US20120318262A1 (priority 2011, published 2012)

Columns and labels:
Wnt signaling = test: TOPflash reporter assay, HEK 293 STF cells treated with Wnt3a; assay type: cell-based
Procedure: Graph represents mean±s.e.m of TOPflash signal normalized to cell number (performed in quadruplicate). […] Data shown represent mean of four independent amplification reactions, graphed as relative expression to unstimulated cells. Expression levels were normalized to β-actin mRNA. Error bars, RQ values with 95% confidence.
(§1) CK1α immunoprecipitated from lysates was incubated with purified β-catenin (100 nM) in kinase assay containing (^γ32P)ATP. Samples were processed for SDS-PAGE/autoradiography. As control, immunoprecipitates were treated with the CK1 inhibitor, CKI-7 (1 μM). […] HA immunoprecipitates were analyzed by LCMS. Graph represents mean±s.e.m. of relative abundance of pyrvinium normalized to bead control (performed in triplicate). […] (FIG. 9C) Structure of VU-WS113. […] (FIG. 9F) CK1α (100 nM) was incubated with recombinant casein (100 nM) in the presence or absence of compounds in a kinase reaction containing [γ32P]ATP. […] Mean±s.e.m. is shown (performed in triplicates).

C57Bl/6 mice [1] = assay type: in vivo; conditions: p<0.05
Source text: FIGS. 5A-D. Mouse MI model. Representative mouse EKG tracings pre (FIG. 5A) and post (FIG. 5B) coronary artery ligation. […] Arrows mark lateral and posterior left ventricle (LV). LVIDD, LVIDS=LV internal diameter at systole and […], respectively. RV=right ventricle. […] Cardiac dimensions were obtained from 2-D guided M-mode images (100 frames/sec) and were read blinded using short axis and a parasternal long-axis views with the leading edge method. All echo measurements were averaged over 3 consecutive beats on unsedated mice at 7 and 30 days after infarction. Statistical significance assessed by the Wilcoxon rank sum test.
Ventricular remodeling and cardiac functional parameters will be assessed by echo.
Mammalian cardiomyocytes irreversibly withdraw from the cell cycle soon after birth and undergo terminal differentiation. […] Therefore, cardiac injury causes permanent myocardial loss and cardiac dysfunction. […] Proliferation was assessed by immunostaining for Ki-67.

C57Bl/6 mice [2] = test: myocardial infarct model, daily IP injection, Ki67/Sca1 histology
Source text: Myocardial infarcts were induced in male C57Bl/6 mice by coronary ligation. A sham-injured cohort underwent all aspects of the procedure except ligation of the coronary artery. […] Mice were sacrificed (n=3 for each time point and each condition) on days 7, 9 and 15 after injury. Hearts were isolated for histologic analysis.

CK1α = CK1α (Homo sapiens, UniProt P48729); test: kinase activity of purified recombinant CK1α (Tau, casein substrates; kinase panel); assay type: biochemical
CK1α, sequence (P48729 whole entry): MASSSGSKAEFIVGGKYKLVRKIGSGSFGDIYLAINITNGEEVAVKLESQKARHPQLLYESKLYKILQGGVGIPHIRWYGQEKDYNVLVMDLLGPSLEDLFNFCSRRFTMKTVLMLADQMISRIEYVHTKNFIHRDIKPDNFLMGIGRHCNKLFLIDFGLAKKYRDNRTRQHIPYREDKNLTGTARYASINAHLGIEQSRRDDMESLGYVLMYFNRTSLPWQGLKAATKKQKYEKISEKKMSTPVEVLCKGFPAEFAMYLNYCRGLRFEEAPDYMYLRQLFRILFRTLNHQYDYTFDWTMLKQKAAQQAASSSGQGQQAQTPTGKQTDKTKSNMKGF
Procedure: as §1, with “LCMS.” for “LCMS. Graph represents mean±s.e.m. of relative abundance of pyrvinium normalized to bead control (performed in triplicate).”

C57Bl/6 mice [3] = test: 2 mm ear punch wound model; assay type: in vivo; conditions: day 30
Source text: (FIG. 8A) Low magnification (4×) view of H&E stained slide showing epithelial repair of wounded skin treated with 211 at 30 days after injury. […] (FIGS. 8C-D) represent H&E of low (10×) and high (20×) magnification view of pyrvinium-treated ears. (FIGS. 8E-F) Trichrome blue staining showing low (FIG. 8E, 10×) and high power (FIG. 8F, 20×) view of pyrvinium-repaired ear.
The ears of six month old C57BL/6 mice were wounded by a 2 mm ear punch (n=3). […] The wounds were monitored over a period of 1 month and the digital photographs of the healing ears were taken periodically. […] The mice were sacrificed at day 30 and histological analysis of the wounded ear was performed.
FIGS. 8C-D show H&E stained slide of low (10×) and high (20×) magnifications of pyrvinium-treated ears.

| SMILES | IC50 (Wnt signaling; Wnt3a-conditioned media, 24 hours, read-out: IC50 of TOPflash (Wnt signaling) inhibition) [nM] | average difference in fractional shortening between days 7 and 30 (C57Bl/6 mice [1]) | inhibition of TOPflash / Wnt signaling (Wnt signaling; Wnt3a) | Ki-67+ cells co-labeled with Sca1+ antibody (C57Bl/6 mice [2]; 40 μg/kg IP) | Sca1+ CPCs share of Wnt-inhibitor responsive population (C57Bl/6 mice [2]; 40 μg/kg IP) [%] | increase in left ventricular, peri-infarct Ki67+ cells (C57Bl/6 mice [2]; 40 μg/kg IP daily through day 6, 7-9 days after MI) | post-infarct proliferation of cardiac progenitors (C57Bl/6 mice [2]; 7 d after injury, control C-211) | activation of CK1α (CK1α) | histology of wounded ear (C57Bl/6 mice [3]; listed as Cmpd 113) | histology of wounded ear (C57Bl/6 mice [3]; listed as compound 113) |
| --- | --- | --- | --- | --- | --- | --- | --- | --- | --- | --- |
| Cc1cc(/C=C/c2ccc3cc(N(C)C)ccc3[n+]2C)c(C)n1-c1ccccc1 [pyrvinium, 6-(Dimethylamino)-2-[2-(2,5-dimethyl-1-phenyl-1H-pyrrol-3-yl)ethenyl]-1-methylquinolinium, reference compound] | ~10 | 22.3±5.2 | – | – | – | – | – | – | – | – |
| Cc1cc(C(=O)Nc2ccc3cc(CN4CCOCC4)ccc3n2)c(C)n1-c1ccccc1 [VU-WS113, 2,5-dimethyl-N-(6-(morpholinomethyl)quinolin-2-yl)-1-phenyl-1H-pyrrole-3-carboxamide] | – | – | retained the capacity to inhibit Wnt signaling | at least 50% | > 60 | 10-13 fold | significantly enhances post-infarct proliferation of cardiac progenitors | activate CK1α | injured hole was repaired | Injured hole was repaired |
